Test results from patent US7473708B2, “Agents with leukotriene B4-like antiviral (enveloped RNA) activities” (priority 1996, dated 2009).
“Also recorded” adds a separate entry of the source.

Experiments:
EBV [1] = experiment: Detection of Epstein-Barr Nuclear Antigen (EBNA) in EBV-infected PBMC (ACIF test); assay type: cell-based, human; settings: 100 nM LTB4, added days 0, 3, 6, 9; ten days of culture
Method: After ten days of culture, cells were harvested for determination of the presence of Epstein-Barr Nuclear Antigen (EBNA), a consequence of EBV infection. Preparation of cell smears, fixation and detection of EBNA by the anti-complement immunofluorescence (ACIF) test were carried out as described by Reedman B. M. and Klein G. (Int. J. Cancer, 1973, 11:499). Smears were prepared by spreading 50 μl of a concentrated suspension of washed cells (2×10^6/ml) on clean slides, air dried and fixed in cold acetone (−20° C.) during 10 minutes. Human serum (50 μl) from EBV seropositive donor was used as a source of complement. Slides were incubated at room temperature in a humid chamber during 45 minutes. Slides were then washed three times in phosphate buffer saline (PBS) and stained with 50 μl of fluorescein-5-isothiocyanate (FITC “Isomer I”)-conjugated goat IgG fraction anti-human complement C3 (Cappel Research Products, Durham, N.C.) during 60 minutes at room temperature in a humid chamber. Slides were washed in PBS (3 times), mounted in PBS:glycerol 1:1 and examined. Raji and U937 cells were used as positive and negative controls, respectively. The percentage of EBNA-positive cells was decreased by more than 55% with 30 nM LTB4, and by more than 70% with 100 nM LTB4 (FIG. 2). The results illustrated in FIG. 2 are representative of six (6) other experiments.
(§1) PBMC were infected with EBV and HSV-1 and treated or not with 100 nM of analogs of LTB4 such as 20-OH-LTB4, LTA3 methyl ester, 12(R)-HETE and 5(S), 15(S)-diHETE. After six days of culture, the presence of EBNA antigen (a consequence of EBV infection) was evaluated by the ACIF test, as described in Example I. Similarly, the presence of HSV-1 antigen in PBMC was evaluated by immunofluorescence using an antiserum obtained from a chronically infected donor as described above in section entitled “Detection of Specific HSV-1 Antigen”. […] The results illustrated in Table 1 are representative of three other experiments.

HSV-1 (strain McIntyre) = experiment: Detection of specific HSV-1 antigen in HSV-1-infected PBMC (immunofluorescence); assay type: cell-based, human; settings: specific antiserum from a chronically infected donor
Method: Synthesis of the viral antigen was inhibited by 60% in the presence of 100 nM LTB4 (FIG. 4). The results illustrated in FIG. 4 are representative of five (5) other experiments.
as §1

HIV-1 strain 89.6 = experiment: HIV ex vivo model, human tonsillar tissue, p24 release; assay type: cell-based; settings: tonsil blocks, LTB4 0.01, 0.1 and 1 μM
Excerpt: An ex vivo model that retains the cellular organization found in normal human lymphoid tissue was used. The selected lymphoid tissues were tonsils. […] Such an ex vivo model is used to study HIV pathogenesis and potency of antiviral agents such as AZT (Zidovudine) by many laboratories.
Human tonsillar tissues from two different individuals were removed during routine tonsillectomy and were received within five hours of excision. The tonsils were washed thoroughly with medium supplemented with antibiotics and then sectioned into 2-3 mm blocks. These tissue blocks were placed in culture medium at the air-liquid interface on the top surface of collagen sponge gels and were pretreated for 10 min with the indicated concentrations of LTB4 (0.01, 0.1 and 1 μM). Next, HIV-1 particles (400 TCID50 of HIV-1 strain 89.6) were applied at the top of each tissue block. The next day, the culture medium was completely removed and replaced with fresh medium supplemented with a final concentration of LTB4 (0.01, 0.1 and 1 μM). This step is necessary in order to remove unadsorbed and uninternalized virus particles. Productive HIV-1 infection was assessed every 3 to 4 days by measuring p24 in the culture medium using a viral core p24 antigen enzyme-linked immunosorbent assay. […]

[2] = test system: coronavirus strain HCoV-OC43; experiment: Human coronavirus infection in lungs of mice; assay type: in vivo; settings: for coronavirus viral load in lungs, per mouse: day 6
Method: The antiviral effect of LTB4 in controlling pneumonia caused by coronavirus was evaluated in an in vivo model using C57BL/6 mice (8 day old). Mice were infected (n=6/group) intranasally with 10 μl of coronavirus suspension (10^4 PFU, strain HCoV-OC43). Twenty-four hours post-infection, mice were treated intranasally with a placebo or with varying doses of LTB4 (5 ng/dose or 50 ng/dose). Mice were treated once a day during 5 days, and were sacrificed and autopsied on day 6. Lungs of mice were surgically removed and the viral load was titrated on HRT-18 cell line.

HSV-1 strain E-377 = experiment: HSV-1 infection in vivo, hairless mice
EBV [3] = experiment: EBV-induced tumor formation in SCID mice given human PBL
[4] = LTB4 10 μg i.p. days 0, 1, 3, 5, 7, 9
[5] = EBV-infected, LTB4 i.p. 10 then 5 μg/mouse, day 42

Structure (SMILES): CCCCC/C=C\C[C@@H](O)/C=C/C=C/C=C\[C@@H](O)CCCC(=O)O [LTB4, 5S,12R-dihydroxy-6,8,10,14 (Z,E,E,Z)-eicosatetraenoic acid]
- decrease of percentage of EBNA-positive cells (EBV [1]): more than 70%
- inhibition of synthesis of HSV-1 antigen (HSV-1 (strain McIntyre)): 75%
- inhibition of the replicative cycle of HIV-1 (p24 release) (HIV-1 strain 89.6): more than 75%
- coronavirus viral load in lungs, per mouse ([2]; LTB4 5 ng/dose/mouse intranasal once a day 5 days): N.D. (below detection limit of 32 TCID50/lungs)
- coronavirus viral load in lungs, per mouse ([2]; LTB4 50 ng/dose/mouse intranasal once a day 5 days): N.D. (below detection limit of 32 TCID50/lungs)
- number of coronavirus particles in lungs versus placebo ([2]; infected mice): significantly reduces; also recorded: reduced
- course of skin lesions (HSV-1 strain E-377; HSV-1-infected hairless mice, LTB4 i.p.): regressed from day 8; also recorded: smaller and disappeared more rapidly
- Survival at day 14 (HSV-1 strain E-377; HSV-1-infected, LTB4 10 μg i.p.): 100%
- Infection-associated symptoms score, Day 4 (HSV-1 strain E-377; [4]): 0
- Infection-associated symptoms score, Day 6 (HSV-1 strain E-377; [4]): 0
- Infection-associated symptoms score, Day 8 (HSV-1 strain E-377; [4]): 0
- Infection-associated symptoms score, Day 10 (HSV-1 strain E-377; [4]): 0
- Size of infected skin lesions, Day 4 (HSV-1 strain E-377; [4]): ≤ 0.5 cm
- Size of infected skin lesions, Day 6 (HSV-1 strain E-377; [4]): 1-3 cm
- Size of infected skin lesions, Day 8 (HSV-1 strain E-377; [4]): 1-3 cm
- Size of infected skin lesions, Day 10 (HSV-1 strain E-377; [4]): ≤ 0.2 cm
- lesions smaller than those of HSV-1-infected untreated Group 2 (HSV-1 strain E-377; lesions developed from days 0 to 4): ~80%
- infection-associated symptoms and general status (HSV-1 strain E-377; throughout the experiment): posterior limb inflammation and skinniness were not observed
- Splenomegaly: Enlarged (mice affected / mice in group) (EBV [3]; [5]): 6/9
- Splenomegaly: Normal (mice affected / mice in group) (EBV [3]; [5]): 1/9
- Splenomegaly: Very enlarged (mice affected / mice in group) (EBV [3]; [5]): 2/9
- Tumor size 800-1500 mm^3 (mice affected / mice in group) (EBV [3]; [5]): 3/9
- Tumor size <800 mm^3 (mice affected / mice in group) (EBV [3]; [5]): 6/9
- Tumor size >1500 mm^3 (mice affected / mice in group) (EBV [3]; [5]): 0/9
- tumor growth induced by EBV (EBV [3]; SCID mice, 42 days): reduces tumor growth induced by EBV
- behaviour and survival of uninfected mice treated with LTB4 alone (EBV [3]; uninfected SCID mice, LTB4 i.p., 42-day period): behaved normally and survived throughout the 42-day period
